The values below are quoted from earlier work in article PMC11215771 (Journal of Medicinal Chemistry, 2024).

The series deals with BACE1. Particulars: cited from earlier work.

For `C[C@@H](NC(=O)c1cc(C(=O)N[C@@H](Cc2ccccc2)[C@H](O)CNC2CC2)cc(N(C)S(C)(=O)=O)c1)c1ccccc1` [C3], the IC50 entry is “nanomolar range”.
